Data as given in patent publication EP0942911B1, “BENZOPYRANOPYRROLE AND BENZOPYRANOPYRIDINE ALPHA-1 ADRENERGIC COMPOUNDS” (Abbott Laboratories, priority 1996, dated 1998).
Structures can show the parent of a compound that is named as a salt.

How the values were obtained:
α-1A adrenoreceptor = biological target: T1, α-1A adrenoreceptor (Rattus norvegicus, UniProt P43140); experiment: cell-based; conditions: phenylephrine-induced contraction; Schild plot; read-out: In Vitro Characterization (pA2) Rat Vas (converted)
T1 sequence (P43140 1-466): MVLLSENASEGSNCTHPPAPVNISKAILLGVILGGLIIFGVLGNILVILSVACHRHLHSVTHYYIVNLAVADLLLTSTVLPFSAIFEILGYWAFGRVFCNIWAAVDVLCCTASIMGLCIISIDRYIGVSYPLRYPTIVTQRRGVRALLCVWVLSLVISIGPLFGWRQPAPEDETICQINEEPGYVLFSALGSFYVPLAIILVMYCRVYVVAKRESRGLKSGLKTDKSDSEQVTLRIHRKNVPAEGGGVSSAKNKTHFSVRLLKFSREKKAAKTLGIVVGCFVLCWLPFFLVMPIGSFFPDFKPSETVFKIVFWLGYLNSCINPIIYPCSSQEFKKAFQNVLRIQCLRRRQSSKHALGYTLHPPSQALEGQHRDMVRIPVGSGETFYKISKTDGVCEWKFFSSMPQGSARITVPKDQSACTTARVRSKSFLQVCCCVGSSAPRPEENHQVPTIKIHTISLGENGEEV
Summary of the method: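 Phenylephrine dose-response curves for contraction were repeated against increasing test-agent concentrations. pA2 was derived by Schild plot [[…] vs log molarity of test agent].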

α-1d adrenoreceptor = biological target: T2, α-1d adrenoreceptor (Rattus norvegicus, UniProt P23944); experiment: biochemical; assay type: binding; conditions: [3H]-prazosin radioligand; cloned receptor in LTK cell membranes; read-out: Radioligand Binding (Ki, nM) 1d (Rat)
T2 sequence (P23944 1-561): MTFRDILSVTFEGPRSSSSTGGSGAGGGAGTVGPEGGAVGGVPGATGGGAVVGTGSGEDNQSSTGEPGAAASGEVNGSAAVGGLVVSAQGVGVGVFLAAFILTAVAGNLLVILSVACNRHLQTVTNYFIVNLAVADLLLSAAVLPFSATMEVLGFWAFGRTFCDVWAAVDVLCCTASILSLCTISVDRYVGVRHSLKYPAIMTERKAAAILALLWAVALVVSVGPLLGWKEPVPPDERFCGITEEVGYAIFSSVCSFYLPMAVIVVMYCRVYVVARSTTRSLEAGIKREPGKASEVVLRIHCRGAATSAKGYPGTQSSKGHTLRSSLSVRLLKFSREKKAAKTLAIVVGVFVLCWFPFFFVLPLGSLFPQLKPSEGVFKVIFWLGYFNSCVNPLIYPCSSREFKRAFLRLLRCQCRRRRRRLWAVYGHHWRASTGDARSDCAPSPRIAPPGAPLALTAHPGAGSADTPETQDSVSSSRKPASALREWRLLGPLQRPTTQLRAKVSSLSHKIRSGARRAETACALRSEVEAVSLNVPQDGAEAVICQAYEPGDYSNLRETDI
Summary of the method: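 Radioactivity counted by liquid scintillation after radioligand binding to membranes. Receptors: cloned α-1a, α-1b, α-1d stably expressed in LTK mouse fibroblasts (G418 selection, SV40 early promoter); rat submaxillary gland membranes for pharmacologically defined α-1A.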

COc1cccc2c1[C@@H]1CN(CCCCn3c(=O)[nH]c4c(sc5nccc(OC)c54)c3=O)C[C@@H]1CO2 [Example 36, 3-[4-((3aR,9bR)-cis-9-Methoxy-1,2,3,3a,4,9b-hexahydro-[1]-benzopyrano[3,4-c]pyrrol-2-yl)butyl]-9-methoxy-pyrido[3',2':4,5]thieno[3,2-d]pyrimidine-2,4(1H,3H)-dione hydrochloride]
Kb (α-1A adrenoreceptor): 537 pM
Ki (α-1d adrenoreceptor): 0.36 nM

COc1cccc2c1[C@@H]1CN(CCCCn3c(=O)[nH]c4c(sc5ncccc54)c3=O)C[C@H]1CO2 [Example 44, 3-[4-((3aS,9bR)-trans-9-Methoxy-1,2,3,3a,4,9b-hexahydro-[1]-benzopyrano[3,4-c]pyrrol-2-yl)butyl]-pyrido[3',2':4,5]thieno[3,2-d]pyrimidine-2,4(1H,3H)-dione hydrochloride]
Kb (α-1A adrenoreceptor): 110 pM
Ki (α-1d adrenoreceptor): 0.081 nM

COc1cccc2c1[C@@H]1CCN(CCCCn3c(=O)[nH]c4c(sc5ncc(Cl)nc54)c3=O)C[C@H]1CO2 [Example 97, 3-[4-((4aS,10bR)-trans-10-Methoxy-1,3,4,4a,5,10b-hexahydro-2H-[1]-benzopyrano[3,4-c]pyrido-3-yl)butyl]-8-chloro-pyrazino[2',3':4,5]thieno[3,2-d]pyrimidine-2,4(1H,3H)-dione dihydrochloride]
Kb (α-1A adrenoreceptor): 1550 pM
Ki (α-1d adrenoreceptor): 0.247 nM

COc1cccc2c1[C@@H]1CN(CCCCn3c(=O)[nH]c4c(sc5nc(C)ccc54)c3=O)C[C@H]1CO2 [Example 45, 3-[4-((3aS,9bR)-trans-9-Methoxy-1,2,3,3a,4,9b-hexahydro-[1]-benzopyrano[3,4-c]pyrrol-2-yl)butyl]-7-methyl-pyrido[3',2':4,5]thieno[3,2-d]pyrimidine-2,4(1H,3H)-dione hydrochloride]
Kb (α-1A adrenoreceptor): 257 pM
Ki (α-1d adrenoreceptor): 0.104 nM

COc1cccc2c1[C@@H]1CN(CCCCn3c(=O)[nH]c4c(sc5nc(-c6ccccc6)cnc54)c3=O)C[C@@H]1CO2 [Example 40, 3-[4-((3aR,9bR)-cis-9-Methoxy-1,2,3,3a,4,9b-hexahydro-[1]-benzopyrano[3,4-c]pyrrol-2-yl)butyl]-7-phenyl-pyrazino[2',3':4,5]thieno[3,2-d]pyrimidine-2,4(1H,3H)-dione hydrochloride]
Kb (α-1A adrenoreceptor): 3020 pM
Ki (α-1d adrenoreceptor): 7.12 nM

COc1cccc2c1[C@@H]1CN(CCCCn3c(=O)[nH]c4c(sc5nc(C)ccc54)c3=O)C[C@@H]1CO2 [Example 35, 3-[4-((3aR,9bR)-cis-9-Methoxy-1,2,3,3a,4,9b-hexahydro-[1]-benzopyrano[3,4-c]pyrrol-2-yl)butyl]-7-methyl-pyrido[3',2':4,5]thieno[3,2-d]pyrimidine-2,4(1H,3H)-dione hydrochloride]
Kb (α-1A adrenoreceptor): 1260 pM
Ki (α-1d adrenoreceptor): 0.436 nM

COc1cccc2c1[C@@H]1CN(CCCCn3c(=O)[nH]c4c(sc5ccc(Cl)nc54)c3=O)C[C@H]1CO2 [Example 25, 3-[4-((3aS,9bR)-trans-9-Methoxy-1,2,3,3a,4,9b-hexahydro-[1]-benzopyrano[3,4-c]pyrrol-2-yl)butyl]-8-chloro-pyrido[2',3':4,5]thieno[3,2-d]pyrimidine-2,4(1H,3H)-dione dihydrochloride]
Kb (α-1A adrenoreceptor): 120 pM
Ki (α-1d adrenoreceptor): 0.039 nM

COc1cccc2c1[C@@H]1CN(CCCCn3c(=O)[nH]c4c(sc5ncc(Cl)nc54)c3=O)C[C@H]1CO2 [Example 13, 3-[4-((3aS,9bR)-trans-9-Methoxy-1,2,3,3a,4,9b-hexahydro-[1]-benzopyrano[3,4-c]pyrrol-2-yl)butyl]-8-chloro-pyrazino[2',3':4,5]thieno[3,2-d]pyrimidine-2,4(1H,3H)-dione hydrochloride]
Kb (α-1A adrenoreceptor): 158 pM
Ki (α-1d adrenoreceptor): 0.112 nM

COc1cccc2c1[C@@H]1CN(CCCCn3c(=O)[nH]c4c(sc5cc(Cl)cnc54)c3=O)C[C@@H]1CO2 [Example 38, 3-[4-((3aR,9bR)-cis-9-Methoxy-1,2,3,3a,4,9b-hexahydro-[1]-benzopyrano[3,4-c]pyrrol-2-yl)butyl]-7-chloro-pyrido[2',3':4,5]thieno[3,2-d]pyrimidine-2,4(1H,3H)-dione hydrochloride]
Kb (α-1A adrenoreceptor): 282 pM
Ki (α-1d adrenoreceptor): 0.897 nM

COc1cnc2sc3c(=O)n(CCCCN4C[C@@H]5COc6cccc(OC)c6[C@@H]5C4)c(=O)[nH]c3c2n1 [Example 31, 3-[4-((3aR,9bR)-cis-9-Methoxy-1,2,3,3a,4,9b-hexahydro-[1]-benzopyrano[3,4-c]pyrrol-2-yl)butyl]-8-methoxy-pyrazino[2',3':4,5]thieno[3,2-d]pyrimidine-2,4(1H,3H)-dione hydrochloride]
Kb (α-1A adrenoreceptor): 229 pM
Ki (α-1d adrenoreceptor): 0.344 nM

COc1cccc2c1[C@@H]1CN(CCCCn3c(=O)[nH]c4c(sc5ncc(-c6ccccc6)nc54)c3=O)C[C@H]1CO2 [Example 50, 3-[4-((3aS,9bR)-trans-9-Methoxy-1,2,3,3a,4,9b-hexahydro-[1]-benzopyrano[3,4-c]pyrrol-2-yl)butyl]-8-phenyl-pyrazino[2',3':4,5]thieno[3,2-d]pyrimidine-2,4(1H,3H)-dione hydrochloride]
Kb (α-1A adrenoreceptor): 44.7 pM
Ki (α-1d adrenoreceptor): 0.391 nM
